The source of these data is patent US9226916B2, “Pyrrolidine derivatives” (HOFFMANN-LA ROCHE INC., priority 2009, dated 2016).

The Ki is a measure of affinity in units of concentration, obtained from inhibition or displacement.

The first assay concerns the target T1, recombinant human NK3 receptor (Homo sapiens, UniProt P29371).
T1 construct: expressed in transfected cells; host or cells: HEK293 cells, transient expression; membranes
T1 sequence (P29371 1-465): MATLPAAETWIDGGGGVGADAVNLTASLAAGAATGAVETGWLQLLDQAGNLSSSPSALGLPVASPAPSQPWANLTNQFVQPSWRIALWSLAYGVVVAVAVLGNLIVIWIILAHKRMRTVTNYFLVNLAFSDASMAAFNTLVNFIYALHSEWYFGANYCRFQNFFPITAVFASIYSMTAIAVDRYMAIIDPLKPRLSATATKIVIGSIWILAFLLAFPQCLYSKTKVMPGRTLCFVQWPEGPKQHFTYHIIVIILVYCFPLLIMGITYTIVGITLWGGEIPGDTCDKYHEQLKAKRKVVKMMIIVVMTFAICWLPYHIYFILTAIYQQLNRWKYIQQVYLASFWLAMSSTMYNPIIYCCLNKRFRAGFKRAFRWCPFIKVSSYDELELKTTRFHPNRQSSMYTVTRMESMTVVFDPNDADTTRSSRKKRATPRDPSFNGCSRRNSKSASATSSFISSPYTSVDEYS
The experiment in a line: [3H]SR142801 competition binding assay.
Settings: not given
Regarding `CN(C(=O)Oc1ccc(S(C)(=O)=O)cc1)[C@@H]1CN(C(=O)C2CCN(c3ccc(C#N)cn3)CC2)C[C@H]1c1ccc(Cl)cc1` [Example 224, [(3S,4R)-4-(4-Chloro-phenyl)-1-(5′-cyano-3,4,5,6-tetrahydro-2H-[1,2′]bipyridinyl-4-carbonyl)-pyrrolidin-3-yl]-methyl-carbamic acid 4-methanesulfonyl-phenyl ester], the Ki came to 22.8 nM.
On the same count and under the same terms, to `CN(C(=O)Oc1ccc(F)cc1)[C@@H]1CN(C(=O)C2CCNCC2)C[C@H]1c1ccc(Cl)cc1` [Example 135, [(3S,4R)-4-(4-Chloro-phenyl)-1-(piperidine-4-carbonyl)-pyrrolidin-3-yl]-methyl-carbamic acid 4-fluoro-phenyl ester] belongs 40.3 nM; to `CN(C(=O)Oc1ccc(Cl)cc1)[C@H]1CN(C(=O)C2CCN(C(=O)C3(C)CC3)CC2)C[C@@H]1c1ccc(Cl)c(Cl)c1` (racemic) [Example 12, rac-{(3R,4S)-4-(3,4-Dichloro-phenyl)-1-[1-(1-methyl-cyclopropanecarbonyl)-piperidine-4-carbonyl]-pyrrolidin-3-yl}-methyl-carbamic acid 4-chloro-phenyl ester], 0.6 nM; to `CN(C(=O)Oc1ccc(F)cc1)[C@H]1CN(C(=O)C2CCN(C(=O)C3CCOCC3)CC2)C[C@@H]1c1ccc(Cl)c(Cl)c1` (racemic) [Example 76, rac-{(3R,4S)-4-(3,4-Dichloro-phenyl)-1-[1-(tetrahydro-pyran-4-carbonyl)-piperidine-4-carbonyl]-pyrrolidin-3-yl}-methyl-carbamic acid 4-fluoro-phenyl ester], 0.7 nM.
As to `CCC(=O)N1CCC(C(=O)N2C[C@H](c3ccc(Cl)c(Cl)c3)[C@@H](N(C)C(=O)Oc3ccc(F)cc3)C2)CC1` (racemic) [Example 73, rac-[(3R,4S)-4-(3,4-Dichloro-phenyl)-1-(1-propionyl-piperidine-4-carbonyl)-pyrrolidin-3-yl]-methyl-carbamic acid 4-fluoro-phenyl ester], the Ki was 0.8 nM.
Take `COC1CC(C(=O)N2CCC(C(=O)N3C[C@@H](N(C)C(=O)Oc4ccc(F)cc4)[C@H](c4ccc(Cl)cc4)C3)CC2)C1` (stereo partly drawn) [Example 251, {(3S,4R)-4-(4-Chloro-phenyl)-1-[1-(3-methoxy-cyclobutanecarbonyl)-piperidine-4-carbonyl]-pyrrolidin-3-yl}-methyl-carbamic acid 4-fluoro-phenyl ester]: the Ki was 2.2 nM.
On the same count and under the same terms, to `CN(C(=O)O[C@H]1CC[C@H](C)CC1)[C@H]1CN(C(=O)C2CCN(C(=O)C3(C)CC3)CC2)C[C@@H]1c1ccc(Cl)cc1` (racemic) [Example 57, rac-{(3R,4S)-4-(4-Chloro-phenyl)-1-[1-(1-methyl-cyclopropanecarbonyl)-piperidine-4-carbonyl]-pyrrolidin-3-yl}-methyl-carbamic acid 4-methyl-cyclohexyl ester] belongs 7.6 nM.
On the same count and under the same terms, the result for `CN(C(=O)Oc1ccc(F)cc1)[C@@H]1CN(C(=O)C2CCN(c3ccc(C(F)(F)F)cn3)CC2)C[C@H]1c1ccc(Cl)cc1` [Example 181, [(3S,4R)-4-(4-Chloro-phenyl)-1-(5′-trifluoromethyl-3,4,5,6-tetrahydro-2H-[1,2′]bipyridinyl-4-carbonyl)-pyrrolidin-3-yl]-methyl-carbamic acid 4-fluoro-phenyl ester] reads 2.8 nM; that for `CN(C(=O)Oc1ccncc1)[C@@H]1CN(C(=O)C2CCN(C(=O)C3(C)CC3)CC2)C[C@H]1c1ccc(Cl)c(Cl)c1` [Example 297, {(3S,4R)-4-(3,4-Dichloro-phenyl)-1-[1-(1-methyl-cyclopropanecarbonyl)-piperidine-4-carbonyl]-pyrrolidin-3-yl}-methyl-carbamic acid pyridin-4-yl ester], 5.9 nM; that for `CN(C(=O)Oc1ccc(F)cc1)[C@H]1CN(C(=O)C2CCN(c3ccc(C#N)cn3)CC2)C[C@@H]1c1ccc(Cl)cc1` [Example 122, [(3R,4S)-4-(4-Chloro-phenyl)-1-(5′-cyano-3,4,5,6-tetrahydro-2H-[1,2′]bipyridinyl-4-carbonyl)-pyrrolidin-3-yl]-methyl-carbamic acid 4-fluoro-phenyl ester], 19 nM.
On the same count and under the same terms, to `CN(C(=O)OCC1CCC(F)(F)CC1)[C@H]1CN(C(=O)C2CCN(C(=O)C3(C)CC3)CC2)C[C@@H]1c1ccc(Cl)c(Cl)c1` (racemic) [Example 99, rac {(3R,4S)-4-(3,4-Dichloro-phenyl)-1-[1-(1-methyl-cyclopropanecarbonyl)-piperidine-4-carbonyl]-pyrrolidin-3-yl}-methyl-carbamic acid 4,4-difluoro-cyclohexylmethyl ester] belongs 1.6 nM; to `CN(C(=O)Oc1ccc(F)cc1)[C@@H]1CN(C(=O)C2CCN(C3CCS(=O)(=O)CC3)CC2)C[C@H]1c1ccc(Cl)cc1` [Example 109, {(3S,4R)-4-(4-Chloro-phenyl)-1-[1-(1,1-dioxo-hexahydro-1λ^6-thiopyran-4-yl)-piperidine-4-carbonyl]-pyrrolidin-3-yl}-methyl-carbamic acid 4-fluoro-phenyl ester], 0.2 nM.
For the compound `CN(C(=O)O[C@@H]1C[C@H]2CC[C@@H]1C2)[C@H]1CN(C(=O)C2CCN(C(=O)C3(C)CC3)CC2)C[C@@H]1c1ccc(Cl)c(Cl)c1` (mixture of isomers) [Example 69, {(3R,4S)-4-(3,4-Dichloro-phenyl)-1-[1-(1-methyl-cyclopropanecarbonyl)-piperidine-4-carbonyl]-pyrrolidin-3-yl}-methyl-carbamic acid (1R,2R,4S)-bicyclo[2.2.1]hept-2-yl ester and {(3S,4R)-4-(3,4-Dichloro-phenyl)-1-[1-(1-methyl-cyclopropanecarbonyl)-piperidine-4-carbonyl]-pyrrolidin-3-yl}-methyl-carbamic acid (1R,2R,4S)-bicyclo[2.2.1]hept-2-yl ester], the inhibition constant Ki was 7.6 nM.
Still for that read-out and setting: to `CCCCOC(=O)N(C)[C@H]1CN(C(=O)C2CCN(CC3CC3)CC2)C[C@@H]1c1ccc(Cl)c(Cl)c1` (racemic) [Example 11, rac-[(3R,4S)-1-(1-Cyclopropylmethyl-piperidine-4-carbonyl)-4-(3,4-dichloro-phenyl)-pyrrolidin-3-yl]-methyl-carbamic acid butyl ester] belongs 27.1 nM; to `COC1CCC(OC(=O)N(C)[C@@H]2CN(C(=O)C3CCN(c4ccc(C#N)cn4)CC3)C[C@H]2c2ccc(Cl)cc2)CC1` (stereo partly drawn) [Example 238, [(3S,4R)-4-(4-Chloro-phenyl)-1-(5′-cyano-3,4,5,6-tetrahydro-2H-[1,2′]bipyridinyl-4-carbonyl)-pyrrolidin-3-yl]-methyl-carbamic acid 4-methoxy-cyclohexyl ester], 48 nM.
The same measure, in the same setting: to `Cc1ccc(OC(=O)N(C)[C@H]2CN(C(=O)C3CCN(C(=O)C4(C)CC4)CC3)C[C@@H]2c2ccc(Cl)c(Cl)c2)cc1` (racemic) [Example 14, rac-{(3R,4S)-4-(3,4-Dichloro-phenyl)-1-[1-(1-methyl-cyclopropanecarbonyl)-piperidine-4-carbonyl]-pyrrolidin-3-yl}-methyl-carbamic acid p-tolyl ester] belongs 1.2 nM; to `CCC(OC(=O)N(C)[C@@H]1CN(C(=O)C2CCN(c3ccc(C#N)cn3)CC2)C[C@H]1c1ccc(Cl)cc1)c1ccc(F)cc1` (stereo partly drawn) [Example 236, [(3S,4R)-4-(4-Chloro-phenyl)-1-(5′-cyano-3,4,5,6-tetrahydro-2H-[1,2′]bipyridinyl-4-carbonyl)-pyrrolidin-3-yl]-methyl-carbamic acid 1-(4-fluoro-phenyl)-propyl ester], 64.8 nM; to `CN(C(=O)OC1CC(F)(F)C1(F)F)[C@@H]1CN(C(=O)C2CCN(c3ccc(C#N)cn3)CC2)C[C@H]1c1ccc(Cl)cc1` (stereo partly drawn) [Example 176, [(3S,4R)-4-(4-Chloro-phenyl)-1-(5′-cyano-3,4,5,6-tetrahydro-2H-[1,2′]bipyridinyl-4-carbonyl)-pyrrolidin-3-yl]-methyl-carbamic acid 2,2,3,3-tetrafluorocyclobutyl ester], 4.6 nM.

The same assay, now with this note: hNK-3 receptor affinity; membranes from HEK293 cells transiently expressing recombinant human NK3 receptor; [3H]SR142801; Cheng-Prussoff; read-out: Data Ki.
For `CN(C(=O)O[C@H]1CC[C@H](C(F)(F)F)CC1)[C@@H]1CN(C(=O)C2CCN(c3ccc(C#N)cn3)CC2)C[C@H]1c1ccc(Cl)cc1` [Example 126, [(3S,4R)-4-(4-Chloro-phenyl)-1-(5′-cyano-3,4,5,6-tetrahydro-2H-[1,2′]bipyridinyl-4-carbonyl)-pyrrolidin-3-yl]-methyl-carbamic acid 4-trifluoromethyl-cyclohexyl ester], the Ki is 1.2 nM.
Same read-out and setting: the result for `CN(C(=O)OCCC1CC1)[C@H]1CN(C(=O)C2CCN(C(=O)C3(C)CC3)CC2)C[C@@H]1c1ccc(Cl)cc1` (stereo in doubt) [Example 54, rac-{(3R,4S)-4-(4-Chloro-phenyl)-1-[1-(1-methyl-cyclopropanecarbonyl)-piperidine-4-carbonyl]-pyrrolidin-3-yl}-methyl-carbamic acid 2-cyclopropyl-ethyl ester] reads 26.4 nM.
For the compound `CN(C(=O)OCC1(C)COC1)[C@@H]1CN(C(=O)C2CCN(c3ccc(C#N)cn3)CC2)C[C@H]1c1ccc(Cl)cc1` [Example 218, [(3S,4R)-4-(4-Chloro-phenyl)-1-(5′-cyano-3,4,5,6-tetrahydro-2H-[1,2′]bipyridinyl-4-carbonyl)-pyrrolidin-3-yl]-methyl-carbamic acid 3-methyl-oxetan-3-ylmethyl ester], the Ki came to 19.5 nM.
